Key:
[1] = molecular target: T1, CsgA (Escherichia coli, UniProt P28307); format: biochemical; conditions: CsgA:inhibitor ratios, FIG. 9
[2] = molecular target: T1, CsgA; conditions: 20-residue peptides on array
[3] = molecular target: T1, CsgA; conditions: ThT fluorescence, FIG. 7E

T1 sequence (P28307 21-151): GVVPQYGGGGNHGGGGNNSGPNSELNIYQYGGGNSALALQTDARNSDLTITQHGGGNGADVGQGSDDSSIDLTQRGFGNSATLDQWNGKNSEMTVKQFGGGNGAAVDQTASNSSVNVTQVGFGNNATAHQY

| Compound | effect of small molecule inhibitors on curli amyloid fiber formation (in words) [1] | fluorescence of labelled CsgA bound to peptide spot (in words) [2] | nucleation of CsgA fiber assembly by plate-bound peptide (in words) [3] |
| --- | --- | --- | --- |
| C[C@@H]1[C@H](O)[C@@H](C)/C=C/C=C/C=C/C=C/C=C/C=C/C=C/[C@H](O[C@@H]2O[C@H](C)[C@@H](O)[C@H](N)[C@@H]2O)C[C@@H]2O[C@](O)(C[C@@H](O)C[C@@H](O)[C@H](O)CC[C@@H](O)C[C@@H](O)CC(=O)O[C@H]1C)C[C@H](O)[C@H]2C(=O)O [AmphB, Amphotericin B] | does not inhibit Curli assembly |  |  |
| COc1ccc(Nc2cc3c(cc2Nc2ccc(OC)cc2)C(=O)NC3=O)cc1 [DAPH-12] | secetively inhibits Curli assembly |  |  |
| GTQKTAIVVQRQSQMAIRVT [CsgB130-149] |  | strongest signal | facilitated CsgA amyloid fiber formation with first-order kinetics |
